The source of these data is PMC3565340, “Crystal Structure of Dimeric Flavodoxin from Desulfovibrio gigas Suggests a Potential Binding Region for the Electron-Transferring Partner” (International Journal of Molecular Sciences, 2013).

This assay has as its target T1, Fld (flavodoxin from Desulfovibrio gigas) (Megalodesulfovibrio gigas, UniProt Q01095).
T1 construct: native, purified from anaerobically grown D. gigas cells; untagged; 146 residues, 15 kDa; residues 2-146 modelled; homodimer
The experiment in a line: X-ray crystal structure of the complex, […] Å. It is filed as binding. The following applies: non-covalently bound native cofactor, co-purified; crystals at pH 6.5 (bis-Tris, PEG550, CaCl2); semiquinone-like state.

T1 sequence (Q01095 whole entry, the tested form may be a part): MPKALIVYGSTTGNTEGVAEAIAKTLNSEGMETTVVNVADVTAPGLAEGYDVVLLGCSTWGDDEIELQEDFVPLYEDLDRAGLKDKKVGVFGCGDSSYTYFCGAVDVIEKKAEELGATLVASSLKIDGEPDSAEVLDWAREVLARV

Consider `Cc1cc2nc3c(=O)[nH]c(=O)nc-3n(C[C@H](O)[C@H](O)[C@H](O)COP(=O)(O)O)c2cc1C` [FMN, flavin mononucleotide], for which the “X-ray crystal structure of the complex, 1.3 Å” value is “the position of FMN was well defined by the electron density”.
